What all share (type): cell-based
In assay [1] the test system is MDA-MB-231. Nature of the assay: Real time cell proliferation, IncuCyte ZOOM, 72 hours.
Assay [2] addresses T1, T315I (Ba/F3) (Homo sapiens, UniProt P00519, T315I, cells depend on it).
T1 construct: fused on or other part: P11274 (Breakpoint cluster region protein)
Description: Cancer cell proliferation inhibition, CCK-8, 72 hours. The following applies: read-out: T315I (Ba/F3) IC50. In a few lines:
(§1)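 A375 cells (2×10^3/well) attached overnight, then received 9 three-fold dilutions (0.0015-10 μM). K562 and Ba/F3-T315I (1×10^4/well) were given 9-point series (3-fold and 5-fold respectively), final 0-10 μM. After 72 h at 37°C, CCK-8 was added for 2 h; blank-subtracted OD450 gave IC50.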

The subject of assay [3] is A375. Described as above. A digest of the protocol:
as §1

The subject of assay [4] is K562. The assay is described as above. A digest of the protocol: as §1
Assay [5] has as its system SK-MEL-28. Nature of the assay: Cancer cell proliferation inhibition, MTS assay, 72 hours. The following applies: Homo sapiens. In a few lines: (§2)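 Cells seeded at 3,000 cells/well in line-specific medium and grown 24 h at 37° C, 5% CO2, then exposed 72 h to serially diluted compound from 50 μM (0.05% DMSO). MTS/PMS added for 2 h at 37° C; OD450 read; IC50 from inhibition versus solvent control, three data sets.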

For assay [6], the system named is RET (LC2/ad-CDC6). Described as above. The conditions noted are these: 72 h. In a few lines:
as §2

Assay [7] relates to Huh7. The description is as above. The following applies: Homo sapiens, Huh-7. A digest of the protocol: as §2
For assay [8], the system named is M-NFS-60. Description: Cancer cell proliferation inhibition, CCK-8, 72 hours. Here is the method:
MTS assay was performed to evaluate the cancer cell proliferation inhibition (cancer cell apoptosis) effect of the compounds of examples of the present invention. Particularly, the assay was performed using the cancer cell lines GIST-T1, GIST-T1/816, GIST-430, GIST-430/654, GIST-R1, GIST-R3, M-NFS-60, RetParental (Ba/F3), Retwt (Ba/F3), RetV804M (Ba/F3), RET (LC2/ad-CDC6), FYN (MCP-1), FYN (FN), MDA-MB-231, Huh7, K562, T315I(Ba/F3), SK-MEL-28 and A375. Cell culture was performed using a medium suitable for each cell line.
M-NFS-60 cell line was cultured in the complete growth medium prepared by adding 10% FBS, 0.05 mM 2-mercaptoethanol and 62 ng of human M-CSF to RPMI. When the confluence reached 80% in T-75 flask, the cells were collected in a 50 ml tube for seeding, followed by centrifugation at 800 rpm for 5 minutes. The cells were suspended in 10 mL of growth medium. The cell number was counted by using a hematocytometer to determine the necessary cell number and the medium volume for seeding. The cells were seeded in a 96-well plate at the density of 20000 cells/well (200 μL/well), followed by stabilization in a 37° C. CO2 incubator, while the compounds of the present invention were prepared. The compounds of the present invention were serially diluted with DMSO at the ratio of 1/3 with setting the maximum concentration at 1968 nM, which were loaded in a new V-bottom 96-well plate, resulting in the preparation of total 11 concentrations including the DMSO control. The cells that had been placed in the incubator were taken out, to which the compounds of the present invention were added (2 μl/well). The plate treated with the compounds was cultured in a 37° C. CO2 incubator for 72 hours. 72 hours later, the plate treated with the compounds was taken out, to which CCK-8 solution was treated (20 μl/well). After well mixing, the plate was further cultured in a 37° C. CO2 incubator for 2 hours. Then, OD450 was measured by using a microplate reader. To obtain accurate results, the wells displaying bubbles were eliminated from the measurement.

Assay [9] concerns FYN (MCP-1). Description: Cancer cell proliferation inhibition, MTS assay, 72 hours. In a few lines: as §2

Where two headings read alike, the source gives them in different places.

For orientation: IC50 means the midpoint of a concentration-inhibition curve. A higher IC50 goes with weaker potency in that assay. As for `Cc1ccc(C(=O)Nc2ccc(CN3CCN(C)CC3)c(C(F)(F)F)c2)cc1C#Cc1cnc2c(Nc3ccc(C(F)(F)F)cc3)cccn12` [Example 19, 4-methyl-N-(4-((4-methylpiperazin-1-yl)methyl)-3-(trifluoromethyl)phenyl)-3-((8-((4-(trifluoromethyl)phenyl)amino)imidazo[1,2-a]pyridin-3-yl)ethynyl)benzamide], the IC50 in assay [1] (Homo sapiens, MDA-MB-231, 72 h) is 3190 nM; in [3] (Homo sapiens, A-375, 72 h) it was 4080 nM; in assay [4] (Homo sapiens, K562, 72 h), 131 nM; in assay [5], 3720 nM; in [6] it was less than 10000 nM; in assay [7], 15200 nM. In assay [8], this compound returned a 50% inhibitory concentration (IC50) of 240 nM. For the same compound, the GI50 in assay [2] was 785 nM.
For `CCN1CCN(Cc2ccc(NC(=O)c3ccc(C)c(C#Cc4cnc5c(Nc6cnn(CCCN(C)C)c6)cccn45)c3)cc2C(F)(F)F)CC1` [Example 33, 3-((8-((1-(3-(dimethylamino)propyl)-1H-pyrazol-4-yl)amino)imidazo[1,2-a]pyridin-3-yl)ethynyl)-N-(4-((4-ethylpiperazin-1-yl)methyl)-3-(trifluoromethyl)phenyl)-4-methylbenzamide], the IC50 in assay [1] (Homo sapiens, MDA-MB-231, 72 h) was 444 nM; in assay [3] (Homo sapiens, A-375, 72 h), 452 nM; in assay [4] (Homo sapiens, K562, 72 h), less than 1 nM; in assay [9], 2040 nM; in [7], 82 nM; in assay [8], 32.1 nM. Moreover, the GI50 in assay [2] is 156 nM.
Take `Cc1ccc(C(=O)Nc2ccc(CN3CCN(C)[C@H](C)C3)c(C(F)(F)F)c2)cc1C#Cc1cnc2c(Nc3cnn(CCCN(C)C)c3)cccn12` [Example 34, (R)-3-((8-((1-(3-(dimethylamino)propyl)-1H-pyrazol-4-yl)amino)imidazo[1,2-a]pyridin-3-yl)ethynyl)-N-(4-((3,4-dimethylpiperazin-1-yl)methyl)-3-(trifluoromethyl)phenyl)-4-methylbenzamide]: the IC50 in assay [1] (Homo sapiens, MDA-MB-231, 72 h) is 1010 nM; in assay [3] (Homo sapiens, A-375, 72 h), 903 nM; in assay [4] (Homo sapiens, K562, 72 h) it was less than 1 nM; in assay [9], 9830 nM; in [7], 70 nM. The GI50 in assay [2] was found to be 831 nM.
For `Cc1ccc(C(=O)Nc2ccc(CN3CCC(N(C)C)C3)c(C(F)(F)F)c2)cc1C#Cc1cnc2c(Nc3cnn(CCCN(C)C)c3)cccn12` (stereo not drawn) [Example 35, 3-((8-((1-(3-(dimethylamino)propyl)-1H-pyrazol-4-yl)amino)imidazo[1,2-a]pyridin-3-yl)ethynyl)-N-(4-((3-(dimethylamino)pyrrolidin-1-yl)methyl)-3-(trifluoromethyl)phenyl)-4-methylbenzamide], the IC50 in [1] (Homo sapiens, MDA-MB-231, 72 h) is 1110 nM; in assay [3] (Homo sapiens, A-375, 72 h) it was 1280 nM; in [4] (Homo sapiens, K562, 72 h) it was less than 1 nM; in assay [9] it was 1120 nM; in assay [7], 66 nM. In addition, the GI50 in assay [2] was 247 nM.
In the case of `Cc1ccc(C(=O)Nc2ccc(CN3CCC(F)(F)CC3)c(C(F)(F)F)c2)cc1C#Cc1cnc2c(Nc3cnn(C)c3)cccn12` [Example 52, N-(4-((4,4-difluoropiperidin-1-yl)methyl)-3-(trifluoromethyl)phenyl)-4-methyl-3-((8-((1-methyl-1H-pyrazol-4-yl)amino)imidazo[1,2-a]pyridin-3-yl)ethynyl)benzamide], the IC50 in assay [1] (Homo sapiens, MDA-MB-231, 72 h) is greater than 10000 nM; in [3] (Homo sapiens, A-375, 72 h), greater than 10000 nM; in assay [4] (Homo sapiens, K562, 72 h), 16 nM; in assay [9], 9520 nM; in assay [6], greater than 10 nM. In addition, the GI50 in assay [2] is 195 nM.
As to `COCCn1cc(Nc2cccn3c(C#Cc4cc(C(=O)Nc5cc(C(C)(C)C(F)(F)F)on5)ccc4C)cnc23)cn1` [Example 58, 3-((8-((1-(2-methoxyethyl)-1H-pyrazol-4-yl)amino)imidazo[1,2-a]pyridin-3-yl)ethynyl)-4-methyl-N-(5-(1,1,1-trifluoro-2-methylpropan-2-yl)isoxazol-3-yl)benzamide], the IC50 in assay [1] (Homo sapiens, MDA-MB-231, 72 h) is 1300 nM; in [3] (Homo sapiens, A-375, 72 h), 1390 nM; in [4] (Homo sapiens, K562, 72 h) it was 8 nM; in [9], 320 nM. For the same compound, the GI50 in assay [2] turned out to be 32.6 nM.
For `CN1CCN(Cc2ccc(NC(=O)c3cccc(C#Cc4cnc5c(Nc6cnn(C)c6)cccn45)c3)cc2C(F)(F)F)CC1` [Example 60, 3-((8-((1-methyl-1H-pyrazol-4-yl)amino)imidazo[1,2-a]pyridin-3-yl)ethynyl)-N-(4-((4-methylpiperazin-1-yl)methyl)-3-(trifluoromethyl)phenyl)benzamide], the IC50 was 289 nM in assay [1] (Homo sapiens, MDA-MB-231, 72 h); 229 nM in [3] (Homo sapiens, A-375, 72 h); less than 1 nM in [4] (Homo sapiens, K562, 72 h); 1470 nM in assay [9]; greater than 10 nM in assay [6]; 21.3 nM in [8]. In assay [2], the GI50 was 34.8 nM.
With `CN1CCN(Cc2ccc(NC(=O)c3ccc(F)c(C#Cc4cnc5c(Nc6cnn(C)c6)cccn45)c3)cc2C(F)(F)F)CC1` [Example 61, 4-fluoro-3-((8-((1-methyl-1H-pyrazol-4-yl)amino)imidazo[1,2-a]pyridin-3-yl)ethynyl)-N-(4-((4-methylpiperazin-1-yl)methyl)-3-(trifluoromethyl)phenyl)benzamide], the IC50 in assay [1] (Homo sapiens, MDA-MB-231, 72 h) was 268 nM; in assay [3] (Homo sapiens, A-375, 72 h) it was 172 nM; in [4] (Homo sapiens, K562, 72 h), less than 1 nM; in assay [9], 1170 nM; in assay [6] it was greater than 10 nM; in [8], 45.3 nM. The GI50 in [2] came out at 58.6 nM.
As to `Cc1ccc(NC(=O)c2ccc(CN3CCN(C)CC3)c(C(F)(F)F)c2)cc1C#Cc1cnc2c(Nc3cnn(C)c3)cccn12` [Example 80, N-(4-methyl-3-((8-((1-methyl-1H-pyrazol-4-yl)amino)imidazo[1,2-a]pyridin-3-yl)ethynyl)phenyl)-4-((4-methylpiperazin-1-yl)methyl)-3-(trifluoromethyl)benzamide], the IC50 in [1] (Homo sapiens, MDA-MB-231, 72 h) was 320 nM; in assay [3] (Homo sapiens, A-375, 72 h), 132 nM; in assay [4] (Homo sapiens, K562, 72 h) it was less than 1 nM; in [9] it was 1870 nM; in assay [7], 89 nM; in [8] it was 46 nM. In addition, in [2], the GI50 is 82.4 nM.
For the compound `Cc1ccc(NC(=O)Nc2cc(C(C)(C)C)on2)cc1C#Cc1cnc2c(Nc3cnn(C(C)C)c3)cccn12` [Example 84, 1-(5-(tert-butyl)isoxazol-3-yl)-3-(3-((8-((1-isopropyl-1H-pyrazol-4-yl)amino)imidazo[1,2-a]pyridin-3-yl)ethynyl)-4-methylphenyl)urea], the IC50 in assay [1] (Homo sapiens, MDA-MB-231, 72 h) is greater than 10000 nM; in assay [3] (Homo sapiens, A-375, 72 h), 5040 nM; in assay [4] (Homo sapiens, K562, 72 h), 90 nM; in assay [5] it was 4460 nM; in assay [6], 1000 nM; in assay [7], 5650 nM. The same compound registered an IC50 in assay [8] of 1610 nM. Moreover, in assay [2], the GI50 amounted to 3070 nM.
On to “N-(4-((3-(dimethylamino)pyrrolidin-1-yl)methyl)-3-(trifluoromethyl)phenyl)-4-methyl-3-((8-((1-methyl-1H-pyrazol-4-yl)amino)imidazo[1,2-a]pyridin-3-yl)ethynyl)benzamide [Example 55]”, for which the IC50 in [1] is 755 nM; in assay [3], 791 nM; in [4], less than 1 nM; in assay [9] it was 5600 nM. Moreover, in assay [2], the GI50 turned out to be 97.5 nM.

For the origin of these results see patent US10870647B2, “Imidazopyridine derivative, method for preparing same, and pharmaceutical composition containing same as active ingredient for preventing or treating cancer” (DAEGU-GYEONGBUK MEDICAL INNOVATION FOUNDATION, priority 2016, dated 2020).
